Test results reported in patent US6689773B2, “Uracil substituted phenyl sulfamoyl carboxamides” (BASF Aktiengesellschaft, priority 2000, dated 2004).

Legend:
Format in all cases: in vivo
[1] = test system: ABUTH, Velvetleaf, Abutilon theophrasti, Medic.; test: Postemergence herbicidal evaluation (Example 147); details: rating scale 0-9, two to three weeks after treatment
Experimental: (§1) Seedling plants were grown in jiffy flats for about two weeks. The test compounds were dispersed in 80/20 acetone/water mixtures containing 1.0% SUN-IT®II, a methylated seed oil, in sufficient quantities to provide the equivalent of about 0.016 to 0.032 kg per hectare of active compound when applied to the plants through a spray nozzle operating at 40 psi for a predetermined time. After spraying, the plants were placed on greenhouse benches and were cared for in accordance with conventional greenhouse procedures. Approximately two to three weeks after treatment, the seedling plants were examined and rated according to the rating scale (0-9) set forth below. Where more than one test is involved for a given compound, the data are averaged. [table] The scale is based upon a visual observation of plant stand, vigor, malformation, size, chlorosis and overall plant appearance as compared with a control. Plant species employed in these evaluations are reported by header abbreviation, common name and scientific name. [table]

[2] = test system: ALOMY, Blackgrass, Alopecurus myosuroides; test: Postemergence herbicidal evaluation (Example 147); details: rating scale 0-9, two to three weeks after treatment
Experimental: as §1

[3] = test system: AMBEL, Ragweed, Common, Ambrosia artemiisifolia, L.; test: Postemergence herbicidal evaluation (Example 147); details: rating scale 0-9, two to three weeks after treatment
Experimental: as §1

[4] = test system: CHEAL, Lambsquarters, Chenopodium album, L. Common; test: Postemergence herbicidal evaluation (Example 147); details: rating scale 0-9, two to three weeks after treatment
Experimental: as §1

[5] = test system: DIGSA, Crabgrass, (Hairy) L, Digitaria sanguinalis, (L)Scop; test: Postemergence herbicidal evaluation (Example 147); details: rating scale 0-9, two to three weeks after treatment
Experimental: as §1

[6] = test system: ECHCG, Barnyardgrass, Echinochloa crusgalli, (L.)Beau; test: Postemergence herbicidal evaluation (Example 147); details: rating scale 0-9, two to three weeks after treatment
Experimental: as §1

[7] = test system: GLXMA, Soybean, Glycine max, (L.) Merr.; test: Postemergence herbicidal evaluation (Example 147); details: rating scale 0-9, two to three weeks after treatment
Experimental: as §1

[8] = test system: IPOHE, Morningglory, Ivyleaf, Ipomoea hederacea, (L)Jacq.; test: Postemergence herbicidal evaluation (Example 147); details: rating scale 0-9, two to three weeks after treatment
Experimental: as §1

[9] = test system: SETVI, Green foxtail, Setaria viridis, (L.)Beau; test: Postemergence herbicidal evaluation (Example 147); details: rating scale 0-9, two to three weeks after treatment
Experimental: as §1

[10] = test system: TRZAW, Winter wheat, Tritium Aestivum, L. (Winter); test: Postemergence herbicidal evaluation (Example 147); details: rating scale 0-9, two to three weeks after treatment
Experimental: as §1

[11] = test system: XANST, Cocklebur, Xanthium strumariam; test: Postemergence herbicidal evaluation (Example 147); details: rating scale 0-9, two to three weeks after treatment
Experimental: as §1

[12] = test system: ZEAMX, Field corn, Zea mays L.; test: Postemergence herbicidal evaluation (Example 147); details: rating scale 0-9, two to three weeks after treatment
Experimental: as §1

[13] = test system: ABUTH, Velvetleaf, Abutilon theophrasti, Medic.; test: Preemergence herbicidal evaluation (Example 148); details: rating scale 0-9, two to four weeks after treatment
Experimental: (§2) The scale is based upon a visual observation of plant stand, vigor, malformation, size, chlorosis and overall plant appearance as compared with a control.
(§3) The herbicidal activity of the compounds of the present invention was evaluated by the following tests wherein the seeds of a variety of monocotyledonous and dicotyledonous plants were separately mixed with potting soil and planted on top of approximately one inch of soil in separate pint cups. After planting, the cups were sprayed with the selected aqueous acetone solution containing test compound in sufficient quantity to provide the equivalent of about 0.125 to 0.250 kg per hectare of test compound per cup. The treated cups were then placed on greenhouse benches, watered and cared for in accordance with conventional greenhouse procedures. From two to four weeks after treatment, the tests were terminated and each cup was examined and rated according to the rating system provided in Example 94. When more than one test was performed for a given compound, the data were averaged.

[14] = test system: ALOMY, Blackgrass, Alopecurus myosuroides; test: Preemergence herbicidal evaluation (Example 148); details: rating scale 0-9, two to four weeks after treatment
Experimental: as §2, §3

[15] = test system: AMBEL, Ragweed, Common, Ambrosia artemiisifolia, L.; test: Preemergence herbicidal evaluation (Example 148); details: rating scale 0-9, two to four weeks after treatment
Experimental: as §2, §3

[16] = test system: CHEAL, Lambsquarters, Chenopodium album, L. Common; test: Preemergence herbicidal evaluation (Example 148); details: rating scale 0-9, two to four weeks after treatment
Experimental: as §2, §3

[17] = test system: DIGSA, Crabgrass, (Hairy) L, Digitaria sanguinalis, (L)Scop; test: Preemergence herbicidal evaluation (Example 148); details: rating scale 0-9, two to four weeks after treatment
Experimental: as §2, §3

[18] = test system: ECHCG, Barnyardgrass, Echinochloa crusgalli, (L.)Beau; test: Preemergence herbicidal evaluation (Example 148); details: rating scale 0-9, two to four weeks after treatment
Experimental: as §2, §3

[19] = test system: GLXMA, Soybean, Glycine max, (L.) Merr.; test: Preemergence herbicidal evaluation (Example 148); details: rating scale 0-9, two to four weeks after treatment
Experimental: as §2, §3

[20] = test system: IPOHE, Morningglory, Ivyleaf, Ipomoea hederacea, (L)Jacq.; test: Preemergence herbicidal evaluation (Example 148); details: rating scale 0-9, two to four weeks after treatment
Experimental: as §2, §3

[21] = test system: SETVI, Green foxtail, Setaria viridis, (L.)Beau; test: Preemergence herbicidal evaluation (Example 148); details: rating scale 0-9, two to four weeks after treatment
Experimental: as §2, §3

[22] = test system: TRZAW, Winter wheat, Tritium Aestivum, L. (Winter); test: Preemergence herbicidal evaluation (Example 148); details: rating scale 0-9, two to four weeks after treatment
Experimental: as §2, §3

[23] = test system: ZEAMX, Field corn, Zea mays L.; test: Preemergence herbicidal evaluation (Example 148); details: rating scale 0-9, two to four weeks after treatment
Experimental: as §2, §3

Compound: CCCNS(=O)(=O)NC(=O)c1cc(-n2c(=O)cc(C(F)(F)F)n(C)c2=O)c(F)cc1Cl [Example 63]
- Postemergence herbicidal rating ABUTH ([1]; rate 0.016 kg/ha): 9.0
- Postemergence herbicidal rating ABUTH ([1]; rate 0.032 kg/ha): 9.0
- Postemergence herbicidal rating ALMOY ([2]; rate 0.016 kg/ha): 2.0
- Postemergence herbicidal rating ALMOY ([2]; rate 0.032 kg/ha): 2.0
- Postemergence herbicidal rating AMBEL ([3]; rate 0.016 kg/ha): 9.0
- Postemergence herbicidal rating AMBEL ([3]; rate 0.032 kg/ha): 9.0
- Postemergence herbicidal rating CHEAL ([4]; rate 0.016 kg/ha): 7.0
- Postemergence herbicidal rating CHEAL ([4]; rate 0.032 kg/ha): 9.0
- Postemergence herbicidal rating DIGSA ([5]; rate 0.016 kg/ha): 4.0
- Postemergence herbicidal rating DIGSA ([5]; rate 0.032 kg/ha): 4.0
- Postemergence herbicidal rating ECHCG ([6]; rate 0.016 kg/ha): 4.0
- Postemergence herbicidal rating ECHCG ([6]; rate 0.032 kg/ha): 6.0
- Postemergence herbicidal rating GLXMA ([7]; rate 0.016 kg/ha): 8.0
- Postemergence herbicidal rating GLXMA ([7]; rate 0.032 kg/ha): 8.0
- Postemergence herbicidal rating IPOHE ([8]; rate 0.016 kg/ha): 9.0
- Postemergence herbicidal rating IPOHE ([8]; rate 0.032 kg/ha): 9.0
- Postemergence herbicidal rating SETVI ([9]; rate 0.016 kg/ha): 7.0
- Postemergence herbicidal rating SETVI ([9]; rate 0.032 kg/ha): 9.0
- Postemergence herbicidal rating TRZAW ([10]; rate 0.016 kg/ha): 6.0
- Postemergence herbicidal rating TRZAW ([10]; rate 0.032 kg/ha): 7.0
- Postemergence herbicidal rating XANST ([11]; rate 0.016 kg/ha): 9.0
- Postemergence herbicidal rating XANST ([11]; rate 0.032 kg/ha): 9.0
- Postemergence herbicidal rating ZEAMX ([12]; rate 0.016 kg/ha): 7.0
- Postemergence herbicidal rating ZEAMX ([12]; rate 0.032 kg/ha): 8.0
- Preemergence herbicidal rating ABUTH ([13]; rate 0.125 kg/ha): 9.0
- Preemergence herbicidal rating ABUTH ([13]; rate 0.25 kg/ha): 9.0
- Preemergence herbicidal rating ALMOY ([14]; rate 0.125 kg/ha): 0.0
- Preemergence herbicidal rating ALMOY ([14]; rate 0.25 kg/ha): 0.0
- Preemergence herbicidal rating AMBEL ([15]; rate 0.125 kg/ha): 9.0
- Preemergence herbicidal rating AMBEL ([15]; rate 0.25 kg/ha): 9.0
- Preemergence herbicidal rating CHEAL ([16]; rate 0.125 kg/ha): 9.0
- Preemergence herbicidal rating CHEAL ([16]; rate 0.25 kg/ha): 9.0
- Preemergence herbicidal rating DIGSA ([17]; rate 0.125 kg/ha): 3.0
- Preemergence herbicidal rating DIGSA ([17]; rate 0.25 kg/ha): 8.0
- Preemergence herbicidal rating ECHCG ([18]; rate 0.125 kg/ha): 4.0
- Preemergence herbicidal rating ECHCG ([18]; rate 0.25 kg/ha): 9.0
- Preemergence herbicidal rating GLXMA ([19]; rate 0.125 kg/ha): 1.0
- Preemergence herbicidal rating GLXMA ([19]; rate 0.25 kg/ha): 5.0
- Preemergence herbicidal rating IPOHE ([20]; rate 0.125 kg/ha): 9.0
- Preemergence herbicidal rating IPOHE ([20]; rate 0.25 kg/ha): 9.0
- Preemergence herbicidal rating SETVI ([21]; rate 0.125 kg/ha): 4.0
- Preemergence herbicidal rating SETVI ([21]; rate 0.25 kg/ha): 8.0
- Preemergence herbicidal rating TRZAW ([22]; rate 0.125 kg/ha): 0.0
- Preemergence herbicidal rating TRZAW ([22]; rate 0.25 kg/ha): 0.0
- Preemergence herbicidal rating ZEAMX ([23]; rate 0.125 kg/ha): 0.0
- Preemergence herbicidal rating ZEAMX ([23]; rate 0.25 kg/ha): 0.0

Compound: CCC(C)NS(=O)(=O)NC(=O)c1cc(-n2c(=O)cc(C(F)(F)F)n(C)c2=O)c(F)cc1Cl (stereo not drawn) [Example 64]
- Postemergence herbicidal rating ABUTH ([1]; rate 0.016 kg/ha): 9.0
- Postemergence herbicidal rating ABUTH ([1]; rate 0.032 kg/ha): 9.0
- Postemergence herbicidal rating ALMOY ([2]; rate 0.016 kg/ha): 3.0
- Postemergence herbicidal rating ALMOY ([2]; rate 0.032 kg/ha): 5.0
- Postemergence herbicidal rating AMBEL ([3]; rate 0.016 kg/ha): 9.0
- Postemergence herbicidal rating AMBEL ([3]; rate 0.032 kg/ha): 9.0
- Postemergence herbicidal rating CHEAL ([4]; rate 0.016 kg/ha): 9.0
- Postemergence herbicidal rating CHEAL ([4]; rate 0.032 kg/ha): 9.0
- Postemergence herbicidal rating DIGSA ([5]; rate 0.016 kg/ha): 5.0
- Postemergence herbicidal rating DIGSA ([5]; rate 0.032 kg/ha): 5.0
- Postemergence herbicidal rating ECHCG ([6]; rate 0.016 kg/ha): 9.0
- Postemergence herbicidal rating ECHCG ([6]; rate 0.032 kg/ha): 9.0
- Postemergence herbicidal rating GLXMA ([7]; rate 0.016 kg/ha): 7.5
- Postemergence herbicidal rating GLXMA ([7]; rate 0.032 kg/ha): 8.0
- Postemergence herbicidal rating IPOHE ([8]; rate 0.016 kg/ha): 9.0
- Postemergence herbicidal rating IPOHE ([8]; rate 0.032 kg/ha): 9.0
- Postemergence herbicidal rating SETVI ([9]; rate 0.016 kg/ha): 8.0
- Postemergence herbicidal rating SETVI ([9]; rate 0.032 kg/ha): 9.0
- Postemergence herbicidal rating TRZAW ([10]; rate 0.016 kg/ha): 6.0
- Postemergence herbicidal rating TRZAW ([10]; rate 0.032 kg/ha): 7.0
- Postemergence herbicidal rating XANST ([11]; rate 0.016 kg/ha): 9.0
- Postemergence herbicidal rating XANST ([11]; rate 0.032 kg/ha): 9.0
- Postemergence herbicidal rating ZEAMX ([12]; rate 0.016 kg/ha): 7.5
- Postemergence herbicidal rating ZEAMX ([12]; rate 0.032 kg/ha): 8.0
- Preemergence herbicidal rating ABUTH ([13]; rate 0.125 kg/ha): 9.0
- Preemergence herbicidal rating ABUTH ([13]; rate 0.25 kg/ha): 9.0
- Preemergence herbicidal rating ALMOY ([14]; rate 0.125 kg/ha): 0.0
- Preemergence herbicidal rating ALMOY ([14]; rate 0.25 kg/ha): 4.0
- Preemergence herbicidal rating AMBEL ([15]; rate 0.125 kg/ha): 9.0
- Preemergence herbicidal rating AMBEL ([15]; rate 0.25 kg/ha): 9.0
- Preemergence herbicidal rating CHEAL ([16]; rate 0.125 kg/ha): 9.0
- Preemergence herbicidal rating CHEAL ([16]; rate 0.25 kg/ha): 9.0
- Preemergence herbicidal rating DIGSA ([17]; rate 0.125 kg/ha): 8.0
- Preemergence herbicidal rating DIGSA ([17]; rate 0.25 kg/ha): 9.0
- Preemergence herbicidal rating ECHCG ([18]; rate 0.125 kg/ha): 3.0
- Preemergence herbicidal rating ECHCG ([18]; rate 0.25 kg/ha): 7.0
- Preemergence herbicidal rating IPOHE ([20]; rate 0.125 kg/ha): 9.0
- Preemergence herbicidal rating IPOHE ([20]; rate 0.25 kg/ha): 9.0
- Preemergence herbicidal rating SETVI ([21]; rate 0.125 kg/ha): 8.0
- Preemergence herbicidal rating SETVI ([21]; rate 0.25 kg/ha): 9.0
- Preemergence herbicidal rating TRZAW ([22]; rate 0.125 kg/ha): 0.0
- Preemergence herbicidal rating TRZAW ([22]; rate 0.25 kg/ha): 3.0
- Preemergence herbicidal rating ZEAMX ([23]; rate 0.125 kg/ha): 0.0
- Preemergence herbicidal rating ZEAMX ([23]; rate 0.25 kg/ha): 2.0
